Patent publication US11207291B2, “Antimicrobial compositions comprising cannabinoids and methods of using the same” (Graphium Biosciences, Inc., priority 2017, dated 2021)
Converted amounts (≈) assume the structure as drawn. Read-outs that look alike come from different tables or passages of the source.

Columns and labels:
[1] = Compound precipitation in uninoculated solubility controls (Example 4); type: physicochemical
Method: Un-inoculated solubility control plates for each test media and drug were incubated in parallel with test plates and observed for evidence of drug precipitation. MICs were read where visible growth of the organism was inhibited.

S. pyogenes MMX 404 = assay: MIC/MBC testing (Example 5); type: cell-based
[2] = test system: Klebsiella pneumoniae (KPC-2); type: cell-based; conditions: Example 1 summary of findings; Klebsiella
[3] = test system: Enterococcus faecalis (VRE); assay: microbe, parasite or virus in culture; type: cell-based; conditions: Enterococcus faecalis, VRE
Acinetobacter baumannii [4] = assay: Broth microdilution MIC, aerobic bacteria (Example 4); type: cell-based
Bifidobacterium longum [5] = assay: Broth microdilution MIC, anaerobic bacteria (Example 1); type: cell-based; conditions: Bifidobacterium longum
[6] = test system: Staphylococcus aureus (MSSA); assay: Broth microdilution MIC, aerobic bacteria (Example 4); type: cell-based; conditions: ATCC 29213 / MSSA
[7] = test system: evaluated yeast and fungal isolates; assay: Broth microdilution MIC, text summary (Example 1); type: cell-based
C. difficile = assay: MIC/MBC testing (Example 5); type: cell-based; conditions: for MBC:MIC: ratios of 1-4 are indicative of bactericidal activity; for MBC / MIC: Clostridioides difficile
E. faecalis ATCC 29212 = assay: MIC/MBC testing (Example 5); type: cell-based
Streptococcus pneumoniae [8] = assay: Broth microdilution MIC, aerobic bacteria (Example 1); type: cell-based; conditions: Streptococcus pneumoniae
Streptococcus pyogenes = assay: Broth microdilution MIC, aerobic bacteria (Example 4); type: cell-based
gram-positive aerobes = assay: Broth microdilution MIC, text summary (Example 1); type: cell-based
Lactobacillus crispatus = assay: Broth microdilution MIC, anaerobic bacteria (Example 1); type: cell-based; conditions: Lactobacillus crispatus
[9] = test system: Enterococcus faecalis (VRE); assay: microbe, parasite or virus in culture; type: cell-based
Bifidobacterium bifidum = assay: Broth microdilution MIC, anaerobic bacteria (Example 1); type: cell-based; conditions: Bifidobacterium bifidum
Streptococcus pneumoniae [10] = assay: Broth microdilution MIC, aerobic bacteria (Example 4); type: cell-based; conditions: ATCC49619
Anaerobic Bacteria = assay: Broth microdilution MIC, text summary (Example 1); type: cell-based
[11] = test system: Staphylococcus aureus (MSSA); assay: Broth microdilution MIC, aerobic bacteria (Example 1); type: cell-based; conditions: Staphylococcus aureus, ATCC 29213 / MSSA, isolate MMX 100 (ATCC 29213), read-out: MIC
[12] = Compound precipitation in uninoculated solubility controls (Example 1); type: physicochemical; set-up: key to precipitation observed (type): NA: not applicable (no precipitation observed); TRP: trace precipitate; DCP: distinct precipitate
Method: Plates were stacked 3-4 high, covered with a lid on the top plate, placed in plastic bags, and incubated at 35° C. for approximately 16 to 20 hr (aerobes), 20 to 24 hr (Streptococcus), and 24 and 48 hr (fungi). Anaerobe plates were stacked, covered with a lid on the top plate, placed in a BD GasPak EZ Anaerobe Container System and incubated at 35° C. for 48 hr. Following incubation, the microplates were removed from the incubator and viewed from the bottom using a plate viewer. […] The MIC was read and recorded as the lowest concentration of drug that inhibited visible growth of the organism.

gram-negative aerobes = assay: Broth microdilution MIC, text summary (Example 1); type: cell-based
[13] = test system: evaluated yeast and fungal isolates; assay: Broth microdilution MIC, summary (Example 4); type: cell-based
Bifidobacterium longum [14] = assay: Broth microdilution MIC, anaerobic bacteria (Example 4); type: cell-based; conditions: isolate MMX 3968
Acinetobacter baumannii [15] = assay: Broth microdilution MIC, aerobic bacteria (Example 1); type: cell-based
Escherichia coli = assay: Broth microdilution MIC, aerobic bacteria (Example 4); type: cell-based; conditions: ATCC25922
B. bifidum MMX 3965 = assay: MIC/MBC testing (Example 5); type: cell-based
[16] = ratios of 1-4 are indicative of bactericidal activity
[17] = Example 1 summary of findings, read-out: inhibits the growth (IC50 values)
[18] = ATCC700057, Example 5, ATCC 700057
[19] = Enterococcus faecalis, ATCC29212
[20] = Bifidobacterium bifidum, MMX3965

C=C(C)[C@@H]1CCC(C)=C[C@H]1c1c(O)cc(CCCCC)cc1O [CBD, cannabidiol]
precipitation observed (type) ([1]; Brucella Broth): none | precipitation observed (type) ([1]; MHB II): none | precipitation observed (type) ([1]; MHB II with Blood): none | precipitation observed (type) ([1]; RPMI): none | MBC (S. pyogenes MMX 404; Streptococcus pyogenes, MMX404): 32 µg/mL (≈ 102 µM) | MIC (S. pyogenes MMX 404; Streptococcus pyogenes, MMX404): 32 µg/mL (≈ 102 µM) | MBC:MIC (S. pyogenes MMX 404; [16]): 1 | effect on the gram-negative pathogen [2]: did not have any effect | MIC [3]: 2 µg/mL (≈ 6.36 µM) | IC50 ([3]; read-out: inhibits the growth (IC50)): 2 µg/mL (≈ 6.36 µM) | MIC (Acinetobacter baumannii [4]): > 128 µg/mL | MIC (Bifidobacterium longum [5]; Example 1, isolate MMX 3968, read-out: MIC): 32 µg/mL (≈ 102 µM) | IC50 (Bifidobacterium longum [5]; [17]): 32 µg/mL (≈ 102 µM) | MIC [6]: 2 µg/mL (≈ 6.36 µM) | activity against yeast and fungal isolates [7]: Neither the cannabinoid prodrugs or CBD were active | MBC:MIC (C. difficile; ATCC 700057): 2 | MBC (C. difficile; [18]): 32 µg/mL (≈ 102 µM) | MIC (C. difficile; [18]): 16 µg/mL (≈ 50.9 µM) | MBC (C. difficile; Example 5, MMX 8330): 32 µg/mL (≈ 102 µM) | MIC (C. difficile; Example 5, MMX 8330): 32 µg/mL (≈ 102 µM) | MBC (C. difficile; Example 5, MMX 8333): 32 µg/mL (≈ 102 µM) | MIC (C. difficile; Example 5, MMX 8333): 16 µg/mL (≈ 50.9 µM) | MBC:MIC (C. difficile; MMX 8330): 1 | MBC:MIC (C. difficile; MMX 8333): 2 | MBC (E. faecalis ATCC 29212; [19]): 2 µg/mL (≈ 6.36 µM) | MIC (E. faecalis ATCC 29212; [19]): 2 µg/mL (≈ 6.36 µM) | MBC:MIC (E. faecalis ATCC 29212; [16]): 1 | MIC (Streptococcus pneumoniae [8]; ATCC49619, Example 1, isolate MMX 1195 (ATCC 49619), read-out: MIC): 4 µg/mL (≈ 12.7 µM) | IC50 (Streptococcus pneumoniae [8]; Example 1 summary of findings, read-out: inhibits the growth (IC50)): 4 µg/mL (≈ 12.7 µM) | MIC (Streptococcus pyogenes): 32 µg/mL (≈ 102 µM) | activity against gram-positive aerobic bacteria (gram-positive aerobes): active | MIC (Lactobacillus crispatus; Example 1, isolate MMX 4147, read-out: MIC): 2 µg/mL (≈ 6.36 µM) | IC50 (Lactobacillus crispatus; [17]): 2 µg/mL (≈ 6.36 µM) | MIC [9]: 2 µg/mL (≈ 6.36 µM) | MIC (Bifidobacterium bifidum; Example 1, isolate MMX 3965, read-out: MIC): 2 µg/mL (≈ 6.36 µM) | IC50 (Bifidobacterium bifidum; [17]): 2 µg/mL (≈ 6.36 µM) | MIC (Streptococcus pneumoniae [10]): 4 µg/mL (≈ 12.7 µM) | MICs (range over anaerobic bacteria) (Anaerobic Bacteria): 2 to 64 µg/mL | MIC [11]: 2 µg/mL (≈ 6.36 µM) | lowest concentration at which precipitation was observed ([12]; MHB II): 16 µg/mL | precipitation observed (type) ([12]; MHB II): TRP | lowest concentration at which precipitation was observed ([12]; MHB II with Blood): 128 µg/mL | precipitation observed (type) ([12]; MHB II with Blood): TRP | activity against gram-negative aerobic bacteria (gram-negative aerobes): inactive | activity against yeast and fungal isolates [13]: Neither THC nor CBD were active | MIC (Bifidobacterium longum [14]): 64 µg/mL (≈ 204 µM) | MIC (Acinetobacter baumannii [15]; Acinetobacter baumannii): > 256 µg/mL | effect on the gram-negative pathogen (Acinetobacter baumannii [15]; Example 1 summary of findings, Acinetobacter): did not have any effect | MIC (Escherichia coli): > 128 µg/mL | MBC (B. bifidum MMX 3965; [20]): 32 µg/mL (≈ 102 µM) | MIC (B. bifidum MMX 3965; [20]): 16 µg/mL (≈ 50.9 µM) | MBC:MIC (B. bifidum MMX 3965; [16]): 2
